The values that follow come from paper PMC11214487, “YZL-51N functions as a selective inhibitor of SIRT7 by NAD^+ competition to impede DNA damage repair” (iScience, 2024).

For experiment [1], the system named is HCT116 xenograft. Put plainly: HCT116 xenograft model. The class given is in vivo, BALB/c nude mice. The procedure: For the xenograft models, HCT116 cells (5 x 10^6 in 100 μL of PBS) were inoculated subcutaneously into the dorsal flank of the 4-week-old male BALB/c nude mice. The mice were randomly divided into control, drug treatment, IR treatment and combination treatment groups. Control group was injected with PBS. Drug treatment group was treated with 15 mg/kg YZL-51N every 3 d. In IR treatment group, the tumor site was irradiated with 3 Gy every 3 d. The combination group was treated with both 15 mg/kg YZL-51N and 3 Gy IR. The tumor size was estimated from the measurement of the longest diameter across the tumor and the corresponding perpendicular diameter. Tumor volumes were assessed on indicated days by a caliper and calculated using the formula: volume = (length x width[2])/2.

Experiment [2] addresses SIRT6 (Homo sapiens, UniProt Q8N6T7). In words: Cellular thermal shift assay in HCT116 cell lysates. The class given is binding. Set-up: endogenous in cells; host or cells: HCT116. Conditions: 20 μM. The procedure:
(§1) Cellular thermal shift assays were performed according to previously reported methods with some modifications.[66] Briefly, HCT116 cells were lysed with RIPA buffer and incubated with 20 μM YZL-51N or DMSO for 1 h on ice. Subsequently, cell lysates were divided into 70 μL aliquots and heated individually at different temperatures for 4 min following by cooling on ice. The heated lysates were centrifuged, and 50 μL supernatants were taken for SDS-PAGE and immunoblotting analysis with the indicated antibodies.

Experiment [3] addresses T1, SIRT7 (Homo sapiens, UniProt Q9NRC8).
T1 construct: His-tagged full length SIRT7 protein expression from BL21 bacterial cells; His; made in house; host or cells: E. coli BL21
T1 sequence (Q9NRC8 1-400): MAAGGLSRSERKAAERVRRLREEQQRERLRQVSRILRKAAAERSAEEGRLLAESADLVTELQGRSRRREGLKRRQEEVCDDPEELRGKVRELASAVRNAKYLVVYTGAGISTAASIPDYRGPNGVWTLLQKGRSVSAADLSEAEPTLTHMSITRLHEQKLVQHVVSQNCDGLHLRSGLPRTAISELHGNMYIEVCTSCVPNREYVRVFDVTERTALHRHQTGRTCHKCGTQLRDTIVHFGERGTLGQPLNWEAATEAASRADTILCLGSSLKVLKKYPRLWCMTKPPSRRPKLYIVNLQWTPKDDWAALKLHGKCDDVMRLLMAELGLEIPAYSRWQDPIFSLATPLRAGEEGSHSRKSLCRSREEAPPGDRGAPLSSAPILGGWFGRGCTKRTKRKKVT
Put plainly: Dot blot assay of SIRT7-mediated H3K18ac peptide deacetylation. The class given is biochemical. An excerpt: To avoid the bias of the fluorescence assay, we also performed dot blot assays for the effects of natural compounds on SIRT7-mediated deacetylation of H3K18ac peptides in vitro (Figures S2A and S2B). In this system, SIRT7 mediated a dose-dependent deacetylation of H3K18ac (Figure 1D). […] Based on comparisons of all the candidates, we selected YZL-51N as the best for further investigation (Figure 1F). […] Thus, P. americana derived YZL-51N was confirmed as an identified SIRT7 inhibitor using parallel peptide-based screening platforms.
For dot blot assays, the reaction system containing 10 μg His-SIRT7, 0.5 mM NAD^+, 10 μM biotin-H3K18ac peptides and 50 μM potential compound was mixed and incubated at 37°C for 90 min. Samples were transferred to a polyvinylidene difluoride (PVDF) membrane, and then blocked with 5% skimmed milk. The blots were probed with H3K18ac primary antibody at RT for 2 h and then incubated with secondary antibody at RT for 1h. The bands were visualized using ECL substrates (Thermo Fisher, USA) on Tanon 5200SF Imaging System.

The target of experiment [4] is T1, SIRT7. In words: Cellular thermal shift assay in HCT116 cell lysates. The class given is binding. Conditions: 20 μM. The procedure:
as §1

For experiment [5], the target named is T2, SIRT1 (Homo sapiens, UniProt Q96EB6).
T2 construct: endogenous in cells; host or cells: HCT116
T2 sequence (Q96EB6 1-747): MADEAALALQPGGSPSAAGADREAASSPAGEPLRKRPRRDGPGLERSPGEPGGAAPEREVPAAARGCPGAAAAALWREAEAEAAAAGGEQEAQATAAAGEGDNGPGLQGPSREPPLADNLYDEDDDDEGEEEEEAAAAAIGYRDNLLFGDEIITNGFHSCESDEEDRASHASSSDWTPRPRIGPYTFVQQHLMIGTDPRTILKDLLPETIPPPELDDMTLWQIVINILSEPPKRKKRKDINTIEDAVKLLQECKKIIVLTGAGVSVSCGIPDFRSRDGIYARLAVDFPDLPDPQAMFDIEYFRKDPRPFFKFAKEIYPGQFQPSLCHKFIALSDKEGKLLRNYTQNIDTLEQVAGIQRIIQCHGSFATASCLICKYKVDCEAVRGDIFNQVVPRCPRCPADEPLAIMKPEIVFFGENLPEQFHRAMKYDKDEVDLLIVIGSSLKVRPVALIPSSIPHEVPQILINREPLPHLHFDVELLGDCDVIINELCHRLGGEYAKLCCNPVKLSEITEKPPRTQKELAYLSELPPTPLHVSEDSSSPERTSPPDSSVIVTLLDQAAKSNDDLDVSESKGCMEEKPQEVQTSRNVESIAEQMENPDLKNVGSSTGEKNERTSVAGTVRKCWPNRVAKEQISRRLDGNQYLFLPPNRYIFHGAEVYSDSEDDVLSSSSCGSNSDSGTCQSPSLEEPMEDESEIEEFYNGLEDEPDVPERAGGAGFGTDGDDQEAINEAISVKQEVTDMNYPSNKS
Described as above. The class given is binding. Conditions: 20 μM. As to the method:
as §1

Experiment [6] relates to HCT116 cells. Put plainly: Western blot of histone acetylation in treated cells. The class given is cell-based, human. Conditions: HCT116, 0-40 μM, 8 h. The procedure:
After drug treatment, the cells were lysed in RIPA lysis buffer. […] The membranes were then blocked with 5% skimmed milk in TBST and incubated overnight at 4°C with the primary antibodies followed by incubation with HRP-conjugated secondary antibodies. The protein bands were then detected using the ECL substrates and visualized with Tanon 5200SF Imaging System.

Chain of SIRT6 (Q8N6T7 whole entry): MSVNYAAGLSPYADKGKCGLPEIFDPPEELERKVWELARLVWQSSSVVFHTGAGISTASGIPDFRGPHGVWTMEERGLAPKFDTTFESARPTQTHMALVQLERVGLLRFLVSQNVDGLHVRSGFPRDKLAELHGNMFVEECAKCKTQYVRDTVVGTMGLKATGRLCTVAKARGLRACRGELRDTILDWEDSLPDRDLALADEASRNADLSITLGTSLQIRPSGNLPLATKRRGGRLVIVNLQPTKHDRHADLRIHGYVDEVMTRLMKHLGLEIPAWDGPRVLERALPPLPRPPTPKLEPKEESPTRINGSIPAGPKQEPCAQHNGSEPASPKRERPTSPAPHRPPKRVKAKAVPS

Consider `COC(=O)/C(=C\C(=O)c1ccc(O)c(O)c1)c1ccc(O)c(O)c1` [YZL-51N], for which the “Tumor therapy, co-treatment with IR” value in experiment [1] (15 mg/kg YZL-51N and 3 Gy IR every 3 days) was “more effective”. Also, the Tumor volume result in experiment [1] (15 mg/kg every 3 days, alone) was “reduction on the tumor volume”. In addition, the “Effect on the melting curve” value in experiment [2] and in experiment [5] was “no obvious effect” throughout. Besides, the “Rescue of H3K18 acetylation” value in experiment [3] (dot blot screening, 50 μM) was “rescued H3K18 acetylation”. Besides, the EC50 in experiment [3] (read-out: Dot blot assay H3K18ac rescue EC50) was found to be 13.5 µM. In addition, the “Shift in the melting curve” value in experiment [4] came out at 5.2 °C. Moreover, in experiment [6], the “Level of H3K18ac” value was “increased”.
